Reference: US7691374B2, “Method for increasing the efficacy of anti-tumor agents by anti-endoglin antibody” (Health Research, Inc., priority 2002, dated 2010)

Columns and labels:
[1] = test system: human vessels in the tumors; experiment: Count of human vessels in tumors after therapy; assay type: in vivo; conditions: large tumors at end of experiment of FIG. 7
Source text: (§1) Large tumors of two different sizes (i.e., 350-450 mm^3 and 100-250 mm^3) were obtained from each group of mice for immunostaining and vessel counting. Sections of the tumors were stained with individual mAbs or a mixture of anti-human CD105 and CD31 mAbs and a mixture of anti-mouse CD105 and CD31 mAbs as described above. Human and mouse vessels were counted separately as described above. An average of vessel counts in the two tumors was compared between different groups.
(§2) Human and murine blood vessels were immunostained in the large human tumors from the chimera mice after the mice were sacrificed at the end of experiment shown in FIG. 7. Number of murine vessels in the tumors was 52, 47, 47 and 34 per 100× field for groups A, B, C and D, respectively (see FIG. 7 for the groups). Therefore, SN6j (group B) and CPA (group C) caused only a small decrease (approximately 10%) in the number of murine vessels in the tumors compared with the control (group A). However, combination of SN6j and CPA (group D) caused a larger (i.e., 35%) decrease in the number of murine vessels. […] CPA was not effective for inhibiting human vessels and only weakly suppressive against murine vessels.

[2] = test system: murine vessels in the tumors; experiment: Count of murine vessels in tumors after therapy; assay type: in vivo, mouse; conditions: large tumors at end of experiment of FIG. 7
Source text: as §1, §2

[3] = test system: Colon-26 tumors; experiment: Therapy of established Colon-26 tumors in BALB/c mice; assay type: in vivo; conditions: SN6j 1.8 μg/g i.v., DOX 0.5 μg/g i.p.
Protocol: Antiangiogenic Therapy of Preformed Colon Tumors in Mice. Colon-26 cells (1.25×10^5 cells in 0.1 ml PBS) were inoculated subcutaneously (s.c.) into left flank of BALB/c mice. […] Doxorubicin (0.5 μg/g body weight) was injected intraperitoneally (i.p.) into mice. The administration was repeated three times at 4 days intervals.
Follow-up of Treatment Efficacy.
SN6j (1.8 μg/g body weight) and MOPC195v (1.8 μg/g body weight) were injected i.v. while DOX (0.5 μg/g body weight) was injected i.p. The injectections were repeated three times at 4 days intervals.
Details of the analysis were described by Yokoyama et al. (31), Yu et al. (32) and us (25). […] This improvement persisted until the end of the therapy experiment (Table 3).

SMILES | number of human vessels in the tumors per 100× field [1] [per 100× field] | decrease in the number of murine vessels compared with the control [2] | number of murine vessels in the tumors per 100× field [2] [per 100× field] | Fractional tumor volume (FTV) relative to untreated controls ([3]; Day 4 after tumor cell inoculation, all mice) | Fractional tumor volume (FTV) relative to untreated controls ([3]; Day 4 after tumor cell inoculation, tumors of >4 mm^3 at onset of therapy) | Fractional tumor volume (FTV) relative to untreated controls ([3]; Day 7 after tumor cell inoculation, all mice) | Fractional tumor volume (FTV) relative to untreated controls ([3]; Day 7 after tumor cell inoculation, tumors of >4 mm^3 at onset of therapy) | Fractional tumor volume (FTV) relative to untreated controls ([3]; Day 9 after tumor cell inoculation, all mice) | Fractional tumor volume (FTV) relative to untreated controls ([3]; Day 9 after tumor cell inoculation, tumors of >4 mm^3 at onset of therapy) | Fractional tumor volume (FTV) relative to untreated controls ([3]; Day 11 after tumor cell inoculation, all mice) | Fractional tumor volume (FTV) relative to untreated controls ([3]; Day 11 after tumor cell inoculation, tumors of >4 mm^3 at onset of therapy) | Fractional tumor volume (FTV) relative to untreated controls ([3]; Day 13 after tumor cell inoculation, all mice) | Fractional tumor volume (FTV) relative to untreated controls ([3]; Day 13 after tumor cell inoculation, tumors of >4 mm^3 at onset of therapy) | Fractional tumor volume (FTV) relative to untreated controls ([3]; Day 15 after tumor cell inoculation, all mice) | Fractional tumor volume (FTV) relative to untreated controls ([3]; Day 15 after tumor cell inoculation, tumors of >4 mm^3 at onset of therapy) | Fractional tumor volume (FTV) relative to untreated controls ([3]; Day 17 after tumor cell inoculation, all mice) | Fractional tumor volume (FTV) relative to untreated controls ([3]; Day 17 after tumor cell inoculation, tumors of >4 mm^3 at onset of therapy) | Fractional tumor volume (FTV) relative to untreated controls ([3]; Day 19 after tumor cell inoculation, all mice) | Fractional tumor volume (FTV) relative to untreated controls ([3]; Day 19 after tumor cell inoculation, tumors of >4 mm^3 at onset of therapy)
O=P1(N(CCCl)CCCl)NCCCO1 (stereo not shown) [CPA, cyclophosphamide] | 36 | approximately 10% | 47 | – | – | – | – | – | – | – | – | – | – | – | – | – | – | – | –
COc1cccc2c1C(=O)c1c(O)c3c(c(O)c1C2=O)C[C@@](O)(C(=O)CO)C[C@@H]3O[C@H]1C[C@H](N)[C@H](O)[C@H](C)O1 [DOX, Doxorubicin] | – | – | – | 0.954 | 0.979 | 0.741 | 0.753 | 0.895 | 0.954 | 0.956 | 1.018 | 0.860 | 1.009 | 0.976 | 1.159 | 0.813 | 0.954 | 0.873 | 1.101
